{
  "source": "patent US10428142B2",
  "about": "“Multipartite signaling proteins and uses thereof” (BLUEBIRD BIO, INC., priority 2013, dated 2019)",
  "key": {"[1]": {"system": "K562-CD19 cells", "details": "for elimination of K562-CD19 cells by bridging factor: rapamycin 10 nM or AP21967 100 nM, 5:1", "description": "The transduced T cells were then co-incubated with about a 50:50 mixture of the K562 target cells expressing either CD19 (K562-CD19) or CD20 (K562-CD20) to evaluate antigen-specific cytotoxicity. […] The DARIC antigen binding component includes a CD19 antigen binding scFv domain and a FKBP12 multimerization domain, which was linked to a mCherry fluorescent protein.\nIn addition, two distinct T cell populations were mixed, wherein one population was expressing a DARIC antigen binding component and the other population was expressing a DARIC signaling component."}, "[2]": {"system": "K562-CD19 cells", "experiment": "Deactivation of DARIC cytotoxicity using an anti-bridging factor", "type": "cell-based, human", "procedure": "Deactivation of the DARIC system by the addition of a pharmacological agent that competes for binding to one of the multimerization domains was tested. Primary human T cells expressing either a traditional CD19 targeting CAR or primary human T cells expressing the CD19 targeting DARIC components (SEQ ID NO.:66) were co-incubated with 50:50 mixtures of K562-CD19 and K562-CD20 cells."}, "[3]": {"system": "K562-CD19 target cells", "procedure": "(§1) A broad range of bridging factor (rapamycin and everolimus) concentrations were tested to determine whether a DARIC system can function at clinically relevant concentrations. As in the Example 4, primary human T cells were isolated, activated, and then transduced with lentiviral vectors expressing a DARIC binding component (SEQ ID NOS.:1, 4, 7) and a DARIC signaling component (SEQ ID NOS.:15, 19, 23). The DARIC expressing T cells were then co-incubated with 50:50 mixtures of the K562-CD19 and K562-CD20 target cells to evaluate antigen-specific cytotoxicity. The overall ratio of T cells to K562 cells was 5:1 in all samples."}, "[4]": {"system": "K562-CD19 target cells", "experiment": "Titration of bridging factors, DARIC T cell cytotoxicity", "details": "DARIC expressing T cells, 5:1, 50:50 K562-CD19:K562-CD20", "procedure": "as §1"}},
  "note": "Read-outs that look alike come from different tables or passages of the source.",
  "data": [
    {"smiles": "CO[C@H]1[C@@H](O)[C@H](C)C[C@H](C)/C=C/C=C/C=C(\\C)[C@@H](c2c[nH]c3c(C)cccc23)C[C@@H]2CC[C@@H](C)[C@@](O)(O2)C(=O)C(=O)N2CCCC[C@H]2C(=O)O[C@H]([C@H](C)C[C@@H]2CC[C@@H](O)[C@H](OC)C2)C[C@H](O)[C@H](C)/C=C(\\C)[C@H]1O", "note": "[AP21967, C-16-(S)-7-methylindolerapamycin]", "values": [
      {"measurement": "elimination of K562-CD19 cells by bridging factor", "setting": "[1]; T cells with CD19 scFv-FKBP12 binding component and FRB (2021-2113) T2098L signaling component", "result": "elimination of the CD19 expressing K562 cells"},
      {"measurement": "elimination of K562-CD19 cells by bridging factor", "setting": "[1]; T cells with CD19 scFv-FKBP12 binding component and FRB signaling component", "result": "no effect on cell survival"}
    ]},
    {"smiles": "C=CC[C@@H]1/C=C(\\C)C[C@H](C)C[C@H](OC)[C@H]2O[C@@](O)(C(=O)C(=O)N3CCCC[C@H]3C(=O)O[C@H](/C(C)=C/[C@@H]3CC[C@@H](O)[C@H](OC)C3)[C@H](C)[C@@H](O)CC1=O)[C@H](C)C[C@@H]2OC", "note": "[FK506]", "values": [
      {"measurement": "reduction in antigen specific cytotoxicity when added", "setting": "[2]; CD19 targeting CAR T cells", "result": "minimal reduction"},
      {"measurement": "reduction in antigen specific cytotoxicity when added", "setting": "[2]; CD19 targeting DARIC T cells with rapamycin", "result": "marked reduction"}
    ]},
    {"smiles": "CO[C@H]1C[C@@H]2CC[C@@H](C)[C@@](O)(O2)C(=O)C(=O)N2CCCC[C@H]2C(=O)O[C@H]([C@H](C)C[C@@H]2CC[C@@H](OCCO)[C@H](OC)C2)CC(=O)[C@H](C)/C=C(\\C)[C@@H](O)[C@@H](OC)C(=O)[C@H](C)C[C@H](C)/C=C/C=C/C=C/1C", "note": "[everolimus]", "values": [
      {"measurement": "cytotoxicity responses over bridging factor concentration", "setting": "[3]", "result": "maintained to sub-nanomolar drug concentrations"}
    ]},
    {"smiles": "CO[C@H]1C[C@@H]2CC[C@@H](C)[C@@](O)(O2)C(=O)C(=O)N2CCCC[C@H]2C(=O)O[C@H]([C@H](C)C[C@@H]2CC[C@@H](O)[C@H](OC)C2)CC(=O)[C@H](C)/C=C(\\C)[C@@H](O)[C@@H](OC)C(=O)[C@H](C)C[C@H](C)/C=C/C=C/C=C/1C", "note": "[rapamycin]", "values": [
      {"measurement": "cytotoxicity by bridging factor", "setting": "[1]; mixed T cell populations, one expressing the binding component, the other the signaling component", "result": "cytotoxicity response against K562-CD19 cells"},
      {"measurement": "cytotoxicity responses over bridging factor concentration", "setting": "[4]", "result": "maintained to sub-nanomolar drug concentrations"}
    ]}
  ]
}
